Laboratory results reported in patent US7166622B2, “Substituted phenylsulfonamide inhibitors of beta amyloid production” (Wyeth, priority 2002, dated 2007).
Read-outs that look alike come from different tables or passages of the source.

What was measured:
beta amyloid production = assay: Repressor Release Assay (RRA); assay type: cell-based; settings: for fold induction at 10 µg/mL / fold induction at 20 µg/mL / fold induction at 3 µg/mL: read-out: APPI Fold Increase; for fold induction at 3 µg/mL: Conc 3 μg/ml; for APPI % of Example #98: relative to Example 98
In short: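 CHO-K1 cells transiently co-transfected with pRSVO-luc and an APP-lacI construct, replated, then treated in duplicate for 36-48 h at 37 °C, 5% CO2. Compounds diluted in 25 mM Hepes, with Hepes/1% DMSO as diluent control. Luciferase read-out in relative light units; toxicity scored 1 non-toxic, 0 toxic.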

CHO-K1 cells = assay: Toxicity in RRA (loss of luciferase signal); settings: toxicity = loss of signal (<0.75 fold increase)
Procedure: The beta amyloid inhibitory activity of the compounds of the present invention was determined using the Repressor Release Assay (RRA).
“Fold Increase” refers to the amount of luciferase activity (measured in relative light units) over diluent control. “SEM” refers to the standard error of the mean for fold increase.

[1] = Conc 10 μg/ml, luciferase activity over diluent control
[2] = Conc 20 μg/ml, luciferase activity (RLU) over diluent control
[3] = Conc 20 μg/ml, 1=non-toxic, 0=toxic
[4] = Conc 20 μg/ml, luciferase activity over diluent control
[5] = luciferase activity over diluent control

CC[C@H](C)[C@H](NS(=O)(=O)c1cccc(Cl)c1)C(O)c1ccc(OC)cc1 (stereo partly drawn) [Example 198, 3-chloro-N-{(1S,2S)-1-[hydroxy(4-methoxyphenyl)methyl]-2-methylbutyl}benzenesulfonamide]
fold induction at 10 µg/mL (beta amyloid production; [1]): 1.54
(%)APPI Toxicity (CHO-K1 cells; Conc 10 μg/ml): 1 (1=non-toxic)

CCC[C@H](c1ccc(OC)cc1)[C@@H](CO)NS(=O)(=O)c1ccc(Cl)cc1 [Example 57, 4-chloro-N-[(1S,2R)-1-(hydroxymethyl)-2-(4-methoxyphenyl)pentyl]benzenesulfonamide]
fold induction at 20 µg/mL (beta amyloid production; [2]): 1.7
(%)APPI Toxicity (CHO-K1 cells; [3]): 1 (1=non-toxic)

CCC[C@H](CC(C)C)[C@@H](CO)NS(=O)(=O)c1ccc(Cl)cc1 [Example 56, 4-chloro-N-[(1S,2R)-1-(hydroxymethyl)-4-methyl-2-propylpentyl]benzenesulfonamide]
fold induction at 20 µg/mL (beta amyloid production; [2]): 3.6
(%)APPI Toxicity (CHO-K1 cells; [3]): 1 (1=non-toxic)

CC[C@H](C)[C@@H](CO)NS(=O)(=O)c1ccccc1Br [Example 1, 2-Bromo-N-[(1S,2S)-1-(hydroxymethyl)-2-methylbutyl]benzenesulfonamide]
fold induction at 20 µg/mL (beta amyloid production; [4]): 1.6
(%)APPI Toxicity (CHO-K1 cells; Conc 20 μg/ml): 1 (1=non-toxic)

CCCCCC[C@@H](CCC)[C@@H](CO)NS(=O)(=O)c1ccc(Cl)cc1 [Example 58, 4-chloro-N-[(1S,2R)-1-(hydroxymethyl)-2-propyloctyl]benzenesulfonamide]
fold induction at 20 µg/mL (beta amyloid production; [2]): 2.6
(%)APPI Toxicity (CHO-K1 cells; [3]): 1 (1=non-toxic)

CC[C@H](C)[C@@H](CO)NS(=O)(=O)c1cc(F)c(Br)cc1F [Example 20, 4-Bromo-2,5-difluoro-N-[(1S,2S)-1-(hydroxymethyl)-2methylbutyl]benzenesulfonamide]
fold induction at 20 µg/mL (beta amyloid production; [4]): 3.3
(%)APPI Toxicity (CHO-K1 cells; Conc 20 μg/ml): 1 (1=non-toxic)

C=CCC(O)[C@@H](NS(=O)(=O)c1ccc(Br)cc1)[C@@H](C)CC (stereo partly drawn) [Example 152, 4-bromo-N-{(1S)-2-hydroxy-1-[(1S)-1-methylpropyl]-4-pentenyl}benzenesulfonamide]
fold induction at 3 µg/mL (beta amyloid production; [5]): 1.6
fold induction at 10 µg/mL (beta amyloid production; [1]): 6.64
(%)APPI Toxicity (CHO-K1 cells; Conc 3 μg/ml): 1 (1=non-toxic)
(%)APPI Toxicity (CHO-K1 cells; Conc 10 μg/ml): 1 (1=non-toxic)

CC[C@H](C)[C@H](NS(=O)(=O)c1ccc(F)cc1)C(O)(CC)CC [Example 242, N-{(1S)-2-ethyl-2-hydroxy-1-[(1S)-1-methylpropyl]butyl}-4-fluorobenzenesulfonamide]
fold induction at 10 µg/mL (beta amyloid production; [1]): 1.6
(%)APPI Toxicity (CHO-K1 cells; Conc 10 μg/ml): 1 (1=non-toxic)

CC[C@H](C)[C@H](NS(=O)(=O)c1ccc(Cl)cc1)C(O)c1ccc(Cl)cc1 (stereo partly drawn) [Example 177, 4-chloro-N-{(1S,2S)-1-[(4-chlorophenyl) (hydroxy)methyl]-2-methylbutyl}benzenesulfonamide]
fold induction at 10 µg/mL (beta amyloid production; [1]): 1.95
(%)APPI Toxicity (CHO-K1 cells; Conc 10 μg/ml): 1 (1=non-toxic)

CC[C@H](c1ccc(OC)cc1)[C@@H](CO)NS(=O)(=O)c1ccc(Br)cc1 [Example 74, 4-bromo-N-[(1S,2R)-1-(hydroxymethyl)-2-(4-methoxyphenyl)butyl]benzenesulfonamide]
fold induction at 20 µg/mL (beta amyloid production; [2]): 2.5
(%)APPI Toxicity (CHO-K1 cells; [3]): 1 (1=non-toxic)

CCCCC(O)[C@@H](NS(=O)(=O)c1ccc(Br)cc1)[C@@H](C)CC (stereo partly drawn) [Example 148, 4-bromo-N-{(1S)-2-hydroxy-1-[(1S)-1-methylpropyl]hexyl}benzenesulfonamide]
fold induction at 10 µg/mL (beta amyloid production; [1]): 1.88
(%)APPI Toxicity (CHO-K1 cells; Conc 10 μg/ml): 1 (1=non-toxic)

CC[C@H](C)[C@H](NS(=O)(=O)c1ccc(Br)cc1)C(O)(c1ccccc1)c1ccccc1 [Example 215, 4-bromo-N-{(1S,2S)-1-[hydroxy(diphenyl)methyl]-2-methylbutyl}benzenesulfonamide]
fold induction at 10 µg/mL (beta amyloid production; [1]): 1.65
(%)APPI Toxicity (CHO-K1 cells; Conc 10 μg/ml): 1 (1=non-toxic)

C=C(C)C(O)(C(=C)C)[C@@H](NS(=O)(=O)c1ccc(Cl)cc1)[C@@H](C)CC [Example 230, 4-chloro-N-{(1S)-2-hydroxy-2-isopropenyl-3-methyl-1-[(1S)-1-methylpropyl]-3-butenyl}benzenesulfonamide]
fold induction at 10 µg/mL (beta amyloid production; [1]): 1.75
fold induction at 20 µg/mL (beta amyloid production; [4]): 1.9
(%)APPI Toxicity (CHO-K1 cells; Conc 10 μg/ml): 1 (1=non-toxic)
(%)APPI Toxicity (CHO-K1 cells; Conc 20 μg/ml): 1 (1=non-toxic)

CCCCC[C@H](CC)[C@@H](CO)NS(=O)(=O)c1ccc(Cl)cc1 [Example 61, 4-chloro-N-[(1S,2S)-2-ethyl-1-(hydroxymethyl)-heptyl]benzenesulfonamide]
fold induction at 20 µg/mL (beta amyloid production; [2]): 6.5
(%)APPI Toxicity (CHO-K1 cells; [3]): 1 (1=non-toxic)

CC[C@H](C)[C@H](NS(=O)(=O)c1ccc(Cl)cc1)C(O)(CC)CC [Example 229, 4-chloro-N-{(1S)-2-ethyl-2-hydroxy-1-[(1S)-1-methylpropyl]butyl}benzenesulfonamide]
fold induction at 10 µg/mL (beta amyloid production; [1]): 1.52
(%)APPI Toxicity (CHO-K1 cells; Conc 10 μg/ml): 1 (1=non-toxic)

CC(C)(C)[C@@H](CO)NS(=O)(=O)c1c(Cl)cc(Cl)cc1Cl [Example 32, 2,4,6-trichloro-N-[(1 S)-1-(hydroxymethyl)-2,2-dimethylpropyl]benzenesulfonamide]
fold induction at 20 µg/mL (beta amyloid production; [4]): 2.2
(%)APPI Toxicity (CHO-K1 cells; Conc 20 μg/ml): 1 (1=non-toxic)

O=S(=O)(NC1(CO)CCCC1)c1ccc(Br)cc1 [Example 94, 4-bromo-N-[1-(hydroxymethyl)cyclopentyl]benzenesulfonamide]
fold induction at 20 µg/mL (beta amyloid production; [4]): 2.5
(%)APPI Toxicity (CHO-K1 cells; Conc 20 μg/ml): 1 (1=non-toxic)

CCCCCC[C@@H](C)[C@@H](CO)NS(=O)(=O)c1ccc(Br)cc1 [Example 72, 4-bromo-N-[(1S,2R)-1-(hydroxymethyl)-2-methyloctyl] benzenesulfonamide]
APPI Fold Increase (beta amyloid production; [2]): 3.2
APPI % of Example #98 (beta amyloid production; Conc 20 μg/ml): 76.4%
(%)APPI Toxicity (CHO-K1 cells; [3]): 1 (1=non-toxic)

C=CCC(O)(CC=C)[C@@H](NS(=O)(=O)c1cccc(Cl)c1)[C@@H](C)CC [Example 254, N-{(1S)-2-allyl-2-hydroxy-1-[(1S)-1-methylpropyl]-4-pentenyl}-3-chloro benzenesulfonamide]
APPI Fold Increase (beta amyloid production; [1]): 1.93 fold
APPI % of Example #98 (beta amyloid production; Conc 10 μg/ml): 71.92%
(%)APPI Toxicity (CHO-K1 cells; Conc 10 μg/ml): 1 (1=non-toxic)

C=CCCC(O)(CCC=C)[C@@H](NS(=O)(=O)c1ccc(F)cc1)[C@@H](C)CC [Example 246, N-{(1S)-2-(3-butenyl)-2-hydroxy-1-[(1S)-1-methylpropyl]-5-hexenyl}-4-fluorobenzenesulfonamide]
fold induction at 10 µg/mL (beta amyloid production; [1]): 2.42
fold induction at 20 µg/mL (beta amyloid production; [4]): 1.9
(%)APPI Toxicity (CHO-K1 cells; Conc 10 μg/ml): 1 (1=non-toxic)
(%)APPI Toxicity (CHO-K1 cells; Conc 20 μg/ml): 1 (1=non-toxic)

C=CCN([C@H](CO)[C@@H](C)CC)S(=O)(=O)c1ccc(Cl)cc1 [Example 40, N-Allyl-4-chloro-N-[(1S,2 S)-1-(hydroxymethyl)-2-methylbutyl]benzenesulfonamide]
fold induction at 20 µg/mL (beta amyloid production; [4]): 3.4
(%)APPI Toxicity (CHO-K1 cells; Conc 20 μg/ml): 1 (1=non-toxic)

CC[C@H](C)[C@H](NS(=O)(=O)c1ccc(Cl)cc1)C(O)c1ccc(OC)cc1 (stereo partly drawn) [Example 178, 4-chloro-N-{(1S,2S)-1-[hydroxy(4-methoxyphenyl)methyl]-2-methylbutyl}benzenesulfonamide]
fold induction at 10 µg/mL (beta amyloid production; [1]): 1.68
(%)APPI Toxicity (CHO-K1 cells; Conc 10 μg/ml): 1 (1=non-toxic)

O=S(=O)(NC1(CO)CCCCC1)c1ccc(Cl)cc1 [Example 123, 4-chloro-N-[1-(hydroxymethyl)cyclohexyl]benzenesulfonamide]
fold induction at 20 µg/mL (beta amyloid production; [4]): 4.4
(%)APPI Toxicity (CHO-K1 cells; Conc 20 μg/ml): 1 (1=non-toxic)

CC[C@H](C)[C@H](NS(=O)(=O)c1cccc(Cl)c1)C(O)C(C)(C)C (stereo partly drawn) [Example 191, 3-chloro-N-{(1S)-2-hydroxy-3,3-dimethyl-1-[(1S)-1-methylpropyl]butyl}benzenesulfonamide]
fold induction at 10 µg/mL (beta amyloid production; [1]): 2.42
(%)APPI Toxicity (CHO-K1 cells; Conc 10 μg/ml): 1 (1=non-toxic)

CC[C@H](C)[C@H](NS(=O)(=O)c1cccc(Cl)c1)C(O)(CC)CC [Example 255, 3-chloro-N-{(1S)-2-ethyl-2-hydroxy-1-[(1S)-1-methylpropyl]butyl}benzenesulfonamide]
fold induction at 10 µg/mL (beta amyloid production; [1]): 2.03
(%)APPI Toxicity (CHO-K1 cells; Conc 10 μg/ml): 1 (1=non-toxic)

C[C@H](c1ccccc1)[C@@H](CO)NS(=O)(=O)c1ccc(Cl)cc1 [Example 51, 4-chloro-N-[(1S,2R)-1-(hydroxymethyl)-2-phenylpropyl]benzenesulfonamide]
fold induction at 20 µg/mL (beta amyloid production; [2]): 1.6
(%)APPI Toxicity (CHO-K1 cells; [3]): 1 (1=non-toxic)

3,4-dibromo-N-[(11S)-1-(hydroxymethyl)-2,2-dimethylpropyl]benzenesulfonamide [Example 29]
APPI Fold Increase (beta amyloid production; [4]): 2.1 fold
APPI % of Example #98 (beta amyloid production; Conc 20 μg/ml): 49.5%
(%)APPI Toxicity (CHO-K1 cells; Conc 20 μg/ml): 1 (1=non-toxic)

CC[C@@H](C)[C@@H](CO)NS(=O)(=O)c1ccc(Cl)cc1 [Example 39, 4-chloro-N-[(1S,2R)-1-(hydroxymethyl)-2-methylbutyl]benzenesulfonamide]
fold induction at 3 µg/mL (beta amyloid production; [5]): 1.56
fold induction at 10 µg/mL (beta amyloid production; [1]): 2.47
fold induction at 20 µg/mL (beta amyloid production; [4]): 5.5
(%)APPI Toxicity (CHO-K1 cells; Conc 3 μg/ml): 1 (1=non-toxic)
(%)APPI Toxicity (CHO-K1 cells; Conc 10 μg/ml): 1 (1=non-toxic)
(%)APPI Toxicity (CHO-K1 cells; Conc 20 μg/ml): 1 (1=non-toxic)

C/C=C(\C)C(O)(/C(C)=C/C)[C@@H](NS(=O)(=O)c1ccc(F)cc1)[C@@H](C)CC (stereo partly drawn) [Example 245, 4-fluoro-N-{(1S,3E)-2-hydroxy-3-methyl-2-[(1E)-1-methyl-1-propenyl]-1-[(1S)-1-methylpropyl]-3-pentenyl}benzenesulfonamide]
fold induction at 10 µg/mL (beta amyloid production; [1]): 2.05
fold induction at 20 µg/mL (beta amyloid production; [4]): 3.5
(%)APPI Toxicity (CHO-K1 cells; Conc 10 μg/ml): 1 (1=non-toxic)
(%)APPI Toxicity (CHO-K1 cells; Conc 20 μg/ml): 1 (1=non-toxic)

CC[C@H](C)[C@H](NS(=O)(=O)c1ccc(F)cc1)C(O)(C(C)C)C(C)C [Example 239, 4-fluoro-N-{(1S)-2-hydroxy-2-isopropyl-3-methyl-1-[(1S)-1-methylpropyl]butyl}benzenesulfonamide]
fold induction at 10 µg/mL (beta amyloid production; [1]): 1.54
(%)APPI Toxicity (CHO-K1 cells; Conc 10 μg/ml): 1 (1=non-toxic)
